Source: patent US20050054615A1, “Calmodulin independent activation of nitric oxide synthase” (Rensselaer Polytechnic Institute, priority 2002, published 2005)
Entries after “also recorded” stand apart in the source; their conditions may differ. Where two headings read alike, the source gives them in different places.

How the values were obtained:
eNOS [1] = biological target: T1, eNOS (Bos taurus, UniProt P29473); experiment: Griess assay of NO production by eNOS; assay type: biochemical, bovine; conditions: for eNOS activity relative to eNOS activated by CaM alone: initial concentrations of NADPH and 2′AMP equal, presence of calcium/CaM
T1 construct: further column purification with gel filtration or anion exchange produces very pure full length NOS; made in house; host or cells: E. coli BL21 (pCWori+)
Description: (§1) Nitric Oxide production was assayed using the Griess assay as adapted for microtiter plates (Gross, S. S. (1996) Methods Enzymol. 268:159-68); calcium dependence was measured using EDTA as a Ca+2 buffer system. […] NADPH-dependent cytochrome c reduction was measured spectrophotometrically as described by McMillan et al (McMillan, K., et al., (1992) Proc Nat. Acad. Sci. U.S.A. 89, 11141-11145), adapted to 96-well plate microtiter plates. In each well, the […] reaction mixture contained 50 mM Na+ TRIS buffer, pH 7.5, 50 uM EDTA, 50 uM NADPH, 50 uM horse heart cytochrome c, and ˜10 nM of nNOS. Cytochrome c reduction was monitored at 550 nm (ε=2.1×104/M). In Cam/Ca+2 dependence studies, 0.75 uM CaCl2 and […] calmodulin were added to reaction mixtures. Assays were performed on a SpectraMAX plate reader (Molecular Devices).
Titration of eNOS with 2′AMP in the presence of ‘fully’ activating levels of Ca+2/CaM was performed using a Greiss assay (see, e.g., the Griess Reagent System, Promega Corporation, Madison, Wis.; and manufacturer's instructions for use). Calcium stoichometries were between two and four. The titration produced an additional activation corresponding to an apparent Kd of ˜1 mM. […] In the most widely used assay systems eNOS is 2-3 fold hyperactivated by 2′AMP (Greiss assay). Enhanced levels of cytochrome c reduction (2-5 fold) can also be observed in both eNOS and nNOS.

eNOS [2] = biological target: T2, eNOS (Bos taurus, UniProt P29473); experiment: NADPH-dependent cytochrome c reduction (electron transfer), eNOS; assay type: biochemical, bovine
T2 construct: further column purification with gel filtration or anion exchange produces very pure full length NOS; made in house; host or cells: E. coli BL21 (pCWori+)
T2 sequence (P29473 1-1205): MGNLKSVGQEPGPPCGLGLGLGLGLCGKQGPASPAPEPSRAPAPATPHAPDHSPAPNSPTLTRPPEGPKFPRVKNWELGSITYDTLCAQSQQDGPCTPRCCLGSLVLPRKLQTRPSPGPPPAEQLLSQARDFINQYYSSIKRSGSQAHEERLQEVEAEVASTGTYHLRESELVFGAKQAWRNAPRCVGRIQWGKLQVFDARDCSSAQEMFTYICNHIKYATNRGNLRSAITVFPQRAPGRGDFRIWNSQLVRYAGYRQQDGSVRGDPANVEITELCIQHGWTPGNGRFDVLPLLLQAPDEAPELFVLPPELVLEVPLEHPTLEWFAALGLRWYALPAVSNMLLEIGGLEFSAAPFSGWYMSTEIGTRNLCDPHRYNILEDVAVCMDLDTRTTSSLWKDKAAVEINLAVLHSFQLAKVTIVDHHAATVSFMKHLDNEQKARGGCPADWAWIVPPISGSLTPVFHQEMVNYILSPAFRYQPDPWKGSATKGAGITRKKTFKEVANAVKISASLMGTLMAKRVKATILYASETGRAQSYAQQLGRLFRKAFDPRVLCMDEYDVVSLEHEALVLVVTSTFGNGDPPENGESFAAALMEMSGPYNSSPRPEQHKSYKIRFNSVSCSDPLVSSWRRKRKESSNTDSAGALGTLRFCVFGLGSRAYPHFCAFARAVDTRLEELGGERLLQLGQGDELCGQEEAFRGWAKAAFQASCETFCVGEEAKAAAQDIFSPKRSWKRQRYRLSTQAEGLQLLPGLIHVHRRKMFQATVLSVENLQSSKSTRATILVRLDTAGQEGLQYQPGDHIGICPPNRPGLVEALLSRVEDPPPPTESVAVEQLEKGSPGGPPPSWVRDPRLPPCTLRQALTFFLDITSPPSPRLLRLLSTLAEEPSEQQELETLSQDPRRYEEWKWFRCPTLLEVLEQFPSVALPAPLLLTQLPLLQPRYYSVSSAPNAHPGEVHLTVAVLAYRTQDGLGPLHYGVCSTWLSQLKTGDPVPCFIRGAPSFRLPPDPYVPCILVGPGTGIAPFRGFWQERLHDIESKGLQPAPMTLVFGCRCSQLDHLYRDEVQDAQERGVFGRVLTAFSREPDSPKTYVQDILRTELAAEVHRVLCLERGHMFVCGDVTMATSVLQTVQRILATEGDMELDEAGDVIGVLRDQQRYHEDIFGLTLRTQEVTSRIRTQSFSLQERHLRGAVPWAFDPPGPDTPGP

nNOS [3] = biological target: T3, nNOS (Rattus norvegicus, UniProt P29476); experiment: NADPH-dependent cytochrome c reduction (electron transfer), nNOS; assay type: biochemical
T3 construct: further column purification with gel filtration or anion exchange produces very pure full length NOS; made in house; host or cells: E. coli BL21 (pCWori+)

cNOS = experiment: Activation of constitutive NOS by nucleotide ligands; assay type: biochemical
Description: The effect of 2′AMP on the optical spectra of reductase cofactors in eNOS was also examined for eNOS as isolated and reduced with 1 mM NADPH. eNOS only, eNOS NADPH, eNOS NADPH with 2′AMP, eNOS NADPH with 2′AMP and CAM, and NADPH 2′AMP were compared.
as §1

iNOS = biological target: T4, iNOS (Mus musculus, UniProt P29477); experiment: Effect of NADPH analogs on iNOS electron transfer; assay type: biochemical, murine; conditions: Tris buffer, absence of calmodulin
T4 construct: made in house; host or cells: E. coli
T4 sequence (P29477 1-1144): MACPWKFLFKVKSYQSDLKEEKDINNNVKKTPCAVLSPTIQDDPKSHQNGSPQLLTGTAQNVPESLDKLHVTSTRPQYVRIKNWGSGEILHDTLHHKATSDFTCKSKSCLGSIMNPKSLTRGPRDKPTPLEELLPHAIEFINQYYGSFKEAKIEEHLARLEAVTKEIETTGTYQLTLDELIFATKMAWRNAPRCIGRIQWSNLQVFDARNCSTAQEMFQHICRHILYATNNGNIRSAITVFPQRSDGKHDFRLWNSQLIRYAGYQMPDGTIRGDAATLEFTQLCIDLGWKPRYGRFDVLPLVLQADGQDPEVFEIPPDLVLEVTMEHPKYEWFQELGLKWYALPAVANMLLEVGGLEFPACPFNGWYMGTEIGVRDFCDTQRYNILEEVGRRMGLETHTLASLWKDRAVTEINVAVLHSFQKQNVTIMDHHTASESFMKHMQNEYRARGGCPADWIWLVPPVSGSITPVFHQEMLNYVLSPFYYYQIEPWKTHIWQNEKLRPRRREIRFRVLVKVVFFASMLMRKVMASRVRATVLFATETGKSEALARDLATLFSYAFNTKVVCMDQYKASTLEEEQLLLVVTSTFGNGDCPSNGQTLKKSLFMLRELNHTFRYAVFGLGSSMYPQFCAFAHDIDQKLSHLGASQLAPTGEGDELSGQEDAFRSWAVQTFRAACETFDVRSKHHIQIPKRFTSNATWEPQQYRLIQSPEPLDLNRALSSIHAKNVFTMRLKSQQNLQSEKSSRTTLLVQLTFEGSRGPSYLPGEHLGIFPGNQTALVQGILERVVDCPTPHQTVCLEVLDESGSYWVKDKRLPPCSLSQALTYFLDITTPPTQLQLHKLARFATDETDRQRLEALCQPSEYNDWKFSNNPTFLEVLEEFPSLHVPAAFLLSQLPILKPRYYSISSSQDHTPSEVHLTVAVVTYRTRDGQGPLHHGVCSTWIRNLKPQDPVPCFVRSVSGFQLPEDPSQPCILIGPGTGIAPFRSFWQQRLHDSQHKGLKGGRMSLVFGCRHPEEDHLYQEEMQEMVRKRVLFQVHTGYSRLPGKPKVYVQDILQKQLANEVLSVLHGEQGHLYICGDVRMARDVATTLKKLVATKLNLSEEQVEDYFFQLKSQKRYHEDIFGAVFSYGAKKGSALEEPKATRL

nNOS [4] = experiment: Nitrite production (Griess) of wild type and mutant nNOS enzymes; assay type: biochemical, rat; conditions: activity of the enzyme preparation, based on heme content
Description: Expression and purification of wild type and mutant bovine eNOS and rat nNOS. Expression and purification of bovine eNOS and rat nNOS were performed using procedures similar to those previously described (Martasek, P.,et al., (1996) Biochem Biophys Res Commun. 219(2); 359-65). Transformed cells were broken with a French press, and after centrifugation to remove cell debris the supernatant was loaded on a 2′5′ADP affinity column, washed, and eluted with 2′AMP as described (id). High purity preparations can be obtained with a size exclusion step; we used a Superose 6 HR 10/30 column (Pharmacia Biotech AB, Uppsala, Sweden), flow rate 0.4 mL/min, buffer composition −50 mM Tris-HCl, pH 7.5, 0.1 mM EDTA, 1 mM-mercaptoethanol, 100 mM NaCl, 10% glycerol (vol/vol). During the purification procedure BH4 or L-arginine were added after elution from the affinity column. Enzyme sample concentrations were determined on the basis of heme concentration, except in heme free preparations, where the flavin concentration was measured. UV-visible absorbance spectra were recorded on an Aminco DW-2000 spectrophotometer.
as §1

[5] = comparison of nucleotide ligands

T3 sequence (P29476 whole entry): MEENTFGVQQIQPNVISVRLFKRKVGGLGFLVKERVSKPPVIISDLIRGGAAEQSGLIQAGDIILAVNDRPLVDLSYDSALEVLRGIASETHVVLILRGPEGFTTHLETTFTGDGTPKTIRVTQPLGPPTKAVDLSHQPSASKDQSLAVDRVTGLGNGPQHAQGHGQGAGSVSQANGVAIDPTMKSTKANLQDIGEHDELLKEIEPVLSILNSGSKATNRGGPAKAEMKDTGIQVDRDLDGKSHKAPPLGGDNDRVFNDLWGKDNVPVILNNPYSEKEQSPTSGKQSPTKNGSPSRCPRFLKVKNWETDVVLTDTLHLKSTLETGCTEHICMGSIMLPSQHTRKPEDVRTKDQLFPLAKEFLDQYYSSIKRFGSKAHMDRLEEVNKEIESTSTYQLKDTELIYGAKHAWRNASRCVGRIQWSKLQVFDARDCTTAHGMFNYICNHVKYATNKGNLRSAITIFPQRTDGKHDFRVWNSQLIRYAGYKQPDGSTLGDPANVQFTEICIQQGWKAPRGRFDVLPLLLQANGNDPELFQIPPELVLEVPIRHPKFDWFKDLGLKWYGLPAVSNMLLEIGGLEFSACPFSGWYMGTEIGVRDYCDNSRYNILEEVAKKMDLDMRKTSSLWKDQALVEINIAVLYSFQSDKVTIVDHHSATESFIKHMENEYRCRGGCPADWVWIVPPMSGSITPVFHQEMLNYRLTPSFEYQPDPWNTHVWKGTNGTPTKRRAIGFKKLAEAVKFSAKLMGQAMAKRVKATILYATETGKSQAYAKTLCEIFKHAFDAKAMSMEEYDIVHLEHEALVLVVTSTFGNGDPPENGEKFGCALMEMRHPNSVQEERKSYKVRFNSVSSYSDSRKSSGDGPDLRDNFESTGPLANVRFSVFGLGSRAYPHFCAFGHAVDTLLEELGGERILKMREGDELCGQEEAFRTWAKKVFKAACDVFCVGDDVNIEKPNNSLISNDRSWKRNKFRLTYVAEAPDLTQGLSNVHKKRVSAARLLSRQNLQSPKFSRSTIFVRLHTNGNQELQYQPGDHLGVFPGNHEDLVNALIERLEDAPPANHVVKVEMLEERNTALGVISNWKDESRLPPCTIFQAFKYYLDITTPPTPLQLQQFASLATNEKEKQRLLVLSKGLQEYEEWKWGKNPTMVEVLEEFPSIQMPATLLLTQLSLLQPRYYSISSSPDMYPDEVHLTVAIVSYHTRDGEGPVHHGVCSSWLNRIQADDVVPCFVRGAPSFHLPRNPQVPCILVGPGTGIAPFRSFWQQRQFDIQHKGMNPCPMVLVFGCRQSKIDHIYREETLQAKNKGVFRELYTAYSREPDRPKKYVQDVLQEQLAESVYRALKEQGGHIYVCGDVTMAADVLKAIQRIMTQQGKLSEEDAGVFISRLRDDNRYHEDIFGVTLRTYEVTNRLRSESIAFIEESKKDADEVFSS

Nc1ncnc2c1ncn2[C@@H]1O[C@H](CO)[C@@H](O)[C@H]1OP(=O)(O)O [2′AMP]
hyperactivation of eNOS (eNOS [1]; Good's buffer systems (e.g., HEPES or MOPS), with Ca+2/CaM): 2-3 fold
eNOS activity relative to eNOS activated by CaM alone (eNOS [1]): 2-3 times
eNOS activity relative to eNOS activated by CaM alone (eNOS [1]; listed as 2′ AMP): 3-5 times
hyperactivation of eNOS (eNOS [1]; most widely used assay systems, Greiss assay): 2-3 fold
Kd (eNOS [1]; titration of eNOS in the presence of 'fully' activating levels of Ca+2/CaM, plate reader Greiss assay, read-out: apparent Kd of additional activation): ~1000 µM
enhanced level (activation) of cytochrome c reduction (eNOS [2]; eNOS): 2-5 fold
enhanced level (activation) of cytochrome c reduction (nNOS [3]; nNOS): 2-5 fold
activation of cNOS in the absence of calmodulin (cNOS; absence of calmodulin, particularly in Tris buffer): activated cNOS in the absence of calmodulin

Nc1ncnc2c1ncn2[C@@H]1O[C@H](COP(=O)(O)O)[C@@H](OP(=O)(O)O)[C@H]1O [3′5′ ADP]
function as NOS activator (cNOS; [5]): only a very weak activator

Nc1ncnc2c1ncn2[C@@H]1O[C@H](COP(=O)(O)OP(=O)(O)OP(=O)(O)O)[C@@H](O)[C@H]1O [ATP]
activation of electron transfer by ATP (eNOS [2]; wild type eNOS, Tris buffer, absence of calmodulin): activation of electron transfer
activation of electron transfer by ATP (nNOS [3]; wild type nNOS, Tris buffer, absence of calmodulin): activation of electron transfer
inhibition of iNOS (iNOS): INOS is inhibited; also recorded: inhibition of INOS

Nc1ncnc2c1ncn2[C@@H]1O[C@@H]2COP(=O)(O)O[C@H]2[C@H]1O [Cyclic AMP]
function as NOS activator (cNOS): did not function as activators

Nc1nc2c(ncn2[C@@H]2O[C@H](COP(=O)(O)OP(=O)(O)O)[C@@H](O)[C@H]2O)c(=O)[nH]1 [GDP]
function as NOS activator (cNOS; [5]): did not function as activators

Nc1nc2c(ncn2[C@@H]2O[C@H](COP(=O)(O)OP(=O)(O)OP(=O)(O)O)[C@@H](O)[C@H]2O)c(=O)[nH]1 [GTP]
function as NOS activator (cNOS; [5]): did not function as activators

Nc1nc2c(ncn2[C@@H]2O[C@@H]3COP(=O)(O)O[C@H]3[C@H]2O)c(=O)[nH]1 [cyclic GMP]
function as NOS activator (cNOS; [5]): did not function as activators

G1074D mutant: rat nNOS small insertion mutant, Gly 1074 replaced by Asp
Nitrite production (nNOS [4]): 179.8 nmoles/min/mg NOS

G1074Y mutant: rat nNOS small insertion mutant, Gly 1074 replaced by Tyr
Nitrite production (nNOS [4]): 186.2 nmoles/min/mg NOS

wild-type nNOS: wild type rat neuronal nitric oxide synthase expressed in E. coli
Nitrite production (nNOS [4]): 292.2 nmoles/min/mg NOS
